This passage reports inhibition results from ChEMBL document CHEMBL1944629, “Investigation of trypanothione reductase inhibitory activity by 1,3,4-thiadiazolium-2-aminide derivatives and molecular docking studies” (Bioorg Med Chem, 2012).

Broadly, the inhibition is the percentage by which the read-out fell short of the control.

For experiment [1], the target named is Trypanothione reductase (Leishmania amazonensis) (UniProt A5JV95). The experiment in a line: Inhibition of trypanothione reductase in Leishmania amazonensis MHOM/BR/LTB0016 extracts assessed as NADPH consumption using trypanothione disulfide as substrate at 1 uM after 5 sec by spectrophotometer.
Trypanothione reductase (Leishmania amazonensis), sequence (A5JV95 as listed by the source): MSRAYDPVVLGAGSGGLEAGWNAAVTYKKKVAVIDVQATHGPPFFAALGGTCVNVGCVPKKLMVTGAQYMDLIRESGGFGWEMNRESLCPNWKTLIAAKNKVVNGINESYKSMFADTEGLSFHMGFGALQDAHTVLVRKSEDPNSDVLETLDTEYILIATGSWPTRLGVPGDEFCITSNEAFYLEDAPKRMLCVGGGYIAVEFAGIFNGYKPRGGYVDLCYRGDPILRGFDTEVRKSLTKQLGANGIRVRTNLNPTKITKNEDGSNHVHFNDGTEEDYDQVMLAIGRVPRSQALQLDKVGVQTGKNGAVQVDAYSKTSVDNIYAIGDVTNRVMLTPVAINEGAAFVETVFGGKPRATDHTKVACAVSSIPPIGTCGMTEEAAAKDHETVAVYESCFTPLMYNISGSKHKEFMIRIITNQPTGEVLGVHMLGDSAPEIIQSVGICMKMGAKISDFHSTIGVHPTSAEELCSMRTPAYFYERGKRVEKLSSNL
Experiment [2] deals with Trypanothione reductase (Leishmania infantum) (UniProt A4HSF7). Put plainly: Inhibition of recombinant Leishmania infantum MHOM/MA67ITMAP263 trypanothione reductase assessed as inhibition of NADPH consumption using trypanothione disulfide as substrate at 1 uM after 60 secs by spectrophotometer.
Trypanothione reductase (Leishmania infantum), sequence (A4HSF7 as listed by the source): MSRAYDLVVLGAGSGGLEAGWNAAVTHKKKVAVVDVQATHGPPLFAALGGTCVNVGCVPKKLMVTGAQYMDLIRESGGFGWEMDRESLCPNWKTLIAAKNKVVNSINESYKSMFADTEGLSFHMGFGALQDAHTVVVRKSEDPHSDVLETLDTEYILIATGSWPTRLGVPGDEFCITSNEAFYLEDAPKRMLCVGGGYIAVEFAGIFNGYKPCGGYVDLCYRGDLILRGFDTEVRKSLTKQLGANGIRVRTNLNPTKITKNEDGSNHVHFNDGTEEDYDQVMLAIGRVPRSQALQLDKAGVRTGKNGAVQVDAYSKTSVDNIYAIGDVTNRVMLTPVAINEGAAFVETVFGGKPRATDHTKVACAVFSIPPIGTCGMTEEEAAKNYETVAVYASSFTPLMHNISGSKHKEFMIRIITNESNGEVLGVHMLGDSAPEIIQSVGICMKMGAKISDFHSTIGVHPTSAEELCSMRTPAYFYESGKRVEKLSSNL
Experiment [3] concerns the target Trypanothione reductase (Trypanosoma cruzi) (UniProt P28593). The experiment in a line: Inhibition of recombinant Trypanosoma cruzi Y trypanothione reductase assessed as inhibition of NADPH consumption using trypanothione disulfide as substrate at 1 uM after 60 secs by spectrophotometer.
Experiment [4] deals with Trypanothione reductase (Leishmania infantum) (UniProt A4HSF7). The experiment in a line: Inhibition of trypanothione reductase in promastigotes of Leishmania infantum MHOM/MA67ITMAP263 extracts assessed as NADPH consumption using trypanothione disulfide as substrate at 1 uM after 5 sec by spectrophotometer.
Experiment [5] concerns Leishmania braziliensis. The experiment in a line: Inhibition of trypanothione reductase in promastigotes of Leishmania braziliensis MCAN/BR/98/R619 extracts assessed as NADPH consumption using trypanothione disulfide as substrate at 1 uM after 5 sec by spectrophotometer.
Experiment [6] addresses Trypanothione reductase (Trypanosoma cruzi) (UniProt P28593). Put plainly: Inhibition of trypanothione reductase epimastigotes of Trypanosoma cruzi Y extracts assessed as NADPH consumption using trypanothione disulfide as substrate at 1 uM after 5 sec by spectrophotometer.

The structures appear in SMILES notation. Activity calls are given as the source filed them. No cut-off for these calls is given here.

Trypanothione reductase (Trypanosoma cruzi), sequence (P28593 whole entry, looked up): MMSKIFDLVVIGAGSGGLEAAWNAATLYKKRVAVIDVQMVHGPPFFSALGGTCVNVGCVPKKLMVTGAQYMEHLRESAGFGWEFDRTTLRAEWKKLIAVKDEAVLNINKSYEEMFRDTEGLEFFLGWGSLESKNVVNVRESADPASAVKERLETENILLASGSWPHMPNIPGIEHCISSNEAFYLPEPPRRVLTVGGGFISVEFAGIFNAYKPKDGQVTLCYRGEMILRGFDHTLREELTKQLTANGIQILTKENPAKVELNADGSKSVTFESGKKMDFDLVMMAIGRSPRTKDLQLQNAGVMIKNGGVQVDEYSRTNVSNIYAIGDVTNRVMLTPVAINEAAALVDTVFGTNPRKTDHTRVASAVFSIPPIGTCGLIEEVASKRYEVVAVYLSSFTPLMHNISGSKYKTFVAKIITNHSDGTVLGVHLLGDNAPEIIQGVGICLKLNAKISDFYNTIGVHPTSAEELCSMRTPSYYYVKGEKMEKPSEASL

Take `COc1cccc(/C=C/c2sc(Nc3ccccc3)n[n+]2-c2ccccc2)c1`: the inhibition entry in experiment [1] is “inactive”.
For `C(=C\c1sc(Nc2ccccc2)n[n+]1-c1ccccc1)/c1ccccc1`, the inhibition result in experiment [1], in experiment [2] and in experiment [3] was “inactive” in each case.
Consider `COc1ccc(/C=C/c2sc(Nc3ccccc3)n[n+]2-c2ccccc2)cc1`, for which, in experiment [1], the inhibition entry was “inactive”.
As to `O=[N+]([O-])c1ccc(/C=C/c2sc(Nc3ccccc3)n[n+]2-c2ccccc2)cc1`, the inhibition in experiment [1] was 76%; in experiment [4] it was 70%; in experiment [5], 69.5%; in experiment [6] it was 83%; in experiment [2], 76%; in experiment [3] it was 69%.
